This is an account of results in EP0210227B1, “PYRIMIDINE SULFATES FOR HAIR GROWTH” (THE UPJOHN COMPANY, priority 1985, dated 1986).

Counter-ions that a name gives are not always drawn.

Common to all, as to type: in vivo
In assay [1] the test system is stumptail Macque monkeys. In words: Hair growth rate on the scalp of balding monkeys, topical solution (Example 4). The settings on record: for Mean wt. (clipped hair, 2.54 cm square area of treated scalp): topical daily, 250 microliters of 750 mg in 50 ml acetone:N-methylpyrrolidone 94:6. As for the experimental part: Topical minoxidil sulfate solution was applied to a group of 6 stumptail Macque monkeys daily, 7 days/ week. The topical minoxidil sulfate solution was prepared by dissolving 750 mg of minoxidil sulfate in 50 ml of a 94:6 volume:volume solution of acetone: N-methylpyrrolidone. A second group of 6 animals served as controls and received vehicle only. the volume per application was 250 microliters applied to the frontal scalp with an art brush. Hair growth rate within a 2.54 cm (1 inch) square area of treated scalp was assessed by quantitatively clipping the hair at successive intervals of 42 days, 21 days and 21 days and weighing the residue.

Assay [2] concerns Balb/c nu/nu male mice. The experiment in a line: Hair growth in nude mice, daily oral or topical drug (Example 3). The conditions noted are these: six week old mice. From the text: (§1) The present invention is illustrated by the Examples, below. Examples 1-3 illustrate the effect of minoxidil sulfate (a compound of the present invention) and minoxidil (the corresponding N-oxide) in genetically identical hair-deficient mice called "nude" (nu/nu) (see Flanagen, Genet. Res. 8:295-309 (1966)). […] All mice in the species mus grow hair in a definite, 20 day cycle, going from head to tail (see Barom, Acta Path. Micro. Scan. 34: 521-541 (1954)). "Nude" mice have the same pattern (see Eton, Transplantation 22: 217-222 (1976)). Hair fails to appear in the nude mouce since it never emerges due to the fact that the hair shaft is incompletely formed, poorly keratinized, or both. The nacent hair shafts fragment within the follicle and thus never emerge or break near the skin surface. The hair produced in the nude mice treated with the compounds described below is more normal and mechanically competent to emerge and persit. Eventually, however, even the hair produced in the drug treated animals falls out due to the genetic defect of these animals. Nonetheless, significant differences in hair growth can be observed in the drug treated animals as compared to the control animals during the twenty day cycle.
(§2) In the Examples, five photographs were taken of the animals every six days over a four week period.
Six week old Balb/c nu/nu male mice were given daily oral drug (without resting on weekends) in 0.25 ml water. Topical minoxidil sulfate was applied in 0.25 ml of a propylene glycol, ethanol, and watervehicle.

In assay [3] the test system is hair-deficient mice called "nude" (nu/nu). The experiment in a line: Hair growth in nude mice, oral drug daily without resting on weekends (Example 2). The conditions noted are these: for Score of Photos 1+ (Number of animals with at least 1 of 5 photos showing positive hair growth) / Score of Photos 2+ (Number of animals with at least 2 of 5 photos showing positive hair growth): Example 2, daily, eleven week old mice; for inducing hair growth, compared with minoxidil: summary of Table I in words.
Text: as §1, §2
Eleven week old mice from the same group fo animals as used in Example 1 were treated by oral administration of 0.25 ml of either minoxidil or minoxidil sulfate in water daily without resting on weekends. Weights were assumed to be an average of 25 g per animal for dosing purposes.

Where [4] appears, read: 20 mg/kg topical in propylene glycol, ethanol and water vehicle.
[5] abbreviates: 40 mg/kg topical in propylene glycol, ethanol and water vehicle.

On to `Nc1cc(N2CCCCC2)nc(N)[n+]1OS(=O)(=O)[O-]` [Minoxidil Sulfate, 2,6-Diamino-4-(1-piperidinyl)-1-(sulfoxy)-pyrimidinium hydroxide, inner salt], for which the figures for the “Mean wt. (clipped hair, 2.54 cm square area of treated scalp)” value in assay [1] (Collection 1 (interval of 42 days)), in assay [1] (Collection 2 (next interval of 21 days)) and in assay [1] (Collection 3 (last interval of 21 days)) were 76 ±20 uG/day, 313 ±67 uG/day and 343 ±52 uG/day, respectively. The “hair growth following topical application to the scalp” value in assay [1] (balding monkeys, summary of Table II in words) is listed as “stimulates hair growth”. Also, the “increase in hair growth versus vehicle” value in assay [1] (by the third collection, summary of Table II in words) is recorded as “statistically significant increase in hair growth”. In addition, the “Score of Photos 1+ (Number of animals with at least 1 of 5 photos showing positive hair growth)” value in assay [2] (5 mg/kg oral, daily) is 2/5; in assay [2] (10 mg/kg oral, daily), 1/5; in assay [2] (20 mg/kg oral, daily) it was 2/5; in assay [2] (setting [4]), 2/5; in assay [2] (40 mg/kg oral, daily), 3/5; in assay [2] (setting [5]), 2/5. Further, the “Score of Photos 1+ (Number of animals with at least 1 of 5 photos showing positive hair growth)” value in assay [3] (20 mg/kg oral) is 4/5; in assay [3] (40 mg/kg oral), 3/5. Further, the “Score of Photos 2+ (Number of animals with at least 2 of 5 photos showing positive hair growth)” value is 1/5 in assay [2] (5 mg/kg oral, daily); 1/5 in assay [2] (10 mg/kg oral, daily); 1/5 in assay [2] (20 mg/kg oral, daily); 0/5 in assay [2] (setting [4]); 0/5 in assay [2] (40 mg/kg oral, daily); 1/5 in assay [2] (setting [5]). In addition, the results for the “Score of Photos 2+ (Number of animals with at least 2 of 5 photos showing positive hair growth)” value in assay [3] (20 mg/kg oral) and in assay [3] (40 mg/kg oral) were 3/5 and 1/5, respectively. The “inducing hair growth, compared with minoxidil” value in assay [3] (at 20 mg/kg) is on record as “significantly better than minoxidil”; in assay [3] (at 40 mg/kg) it was “equipotent to or better than minoxidil”.
